Structures are written as SMILES. pIC50: −log10 of the molar value.

The first test deals with human SGLT1 (Homo sapiens (Human), UniProt P13866). The test is described as follows: SGLT1 inhibitory activity: 14C-AMG uptake into CHO-K1 cell line stably expressing human SGLT1. The format is cell-based. As to conditions: 14C-AMG uptake, CHO-K1 cells stably expressing human SGLT1. The gist of the method: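 CHO-K1 cells stably expressing human SGLT1 were pre-incubated 20 min in Na(−) buffer (pH 7.4). Test compound in Na(+) buffer with BSA was added with ¹⁴C-AMG (8 kBq) plus unlabelled AMG (2 mM in the added solution) for 1 h at 37 °C.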
Chain of human SGLT1 (P13866 whole entry): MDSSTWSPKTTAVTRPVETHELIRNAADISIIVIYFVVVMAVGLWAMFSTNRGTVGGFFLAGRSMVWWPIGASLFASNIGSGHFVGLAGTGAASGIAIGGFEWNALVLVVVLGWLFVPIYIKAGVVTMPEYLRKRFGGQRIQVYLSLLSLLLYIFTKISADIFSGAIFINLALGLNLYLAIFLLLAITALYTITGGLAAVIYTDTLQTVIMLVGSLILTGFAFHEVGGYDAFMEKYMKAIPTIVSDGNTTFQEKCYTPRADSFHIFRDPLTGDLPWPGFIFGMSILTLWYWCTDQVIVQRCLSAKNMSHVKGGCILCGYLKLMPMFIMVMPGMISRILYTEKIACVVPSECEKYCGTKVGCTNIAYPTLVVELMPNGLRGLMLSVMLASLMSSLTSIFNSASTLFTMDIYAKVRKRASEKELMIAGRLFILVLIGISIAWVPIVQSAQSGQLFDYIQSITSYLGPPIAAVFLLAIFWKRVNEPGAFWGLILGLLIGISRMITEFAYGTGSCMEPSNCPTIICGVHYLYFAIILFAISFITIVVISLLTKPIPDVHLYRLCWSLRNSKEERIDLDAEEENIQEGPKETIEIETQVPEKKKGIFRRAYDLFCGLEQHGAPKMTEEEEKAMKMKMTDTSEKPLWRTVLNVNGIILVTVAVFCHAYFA
The pIC50 is the negative decadic logarithm of the IC50, by convention in mol/L. A higher pIC50 goes with a low IC50. With `CC(C)(C)CS(=O)(=O)c1cccc(-c2cc(NC(=O)[C@@H]3CNC(=O)C3)nn2-c2ccccc2)c1` [Example 540], the pIC50 was 7.32.
As to `CC(C)CSc1cccc(-c2cc(NC(=O)[C@@H]3CNC(=O)C3)nn2-c2ccccc2)c1` [Example 546], the pIC50 is 8.24.
As to `C[C@@H](OCc1cccc(-c2cc(NC(=O)[C@@H]3CCC(=O)N3)nn2-c2ccccc2)c1)C(F)(F)F` [Example 547], the negative logarithm of the IC50 (pIC50) was 7.37.
On the same count and under the same terms, to `C[C@@H](OCc1cc(F)cc(-c2cc(NC(=O)[C@@H]3CCC(=O)N3)nn2-c2ccccc2)c1)C(F)(F)F` [Example 555] belongs 7.62.
Regarding `O=C1NC[C@@H](C(=O)Nc2cc(-c3cccc(COCC(F)(F)F)c3)n(-c3ccccc3)n2)N1` [Example 558], the pIC50 is 7.42.
`C[C@H]1C(=O)NC[C@@H]1C(=O)Nc1cc(-c2cccc(COCC(F)(F)F)c2)n(-c2ccccc2)n1` [Example 559] showed a negative logarithm of the IC50 (pIC50) of 8.11. This pIC50 is 0.69 log units higher than that of the molecule before.
On the same count and under the same terms, next, `C[C@@H](OCc1cccc(-c2cc(NC(=O)[C@H]3CNC(=O)C3)nn2-c2ccccc2)c1)C(F)(F)F` [Example 561]: 8.26.
The molecule `C[C@@H](OCc1cccc(-c2cc(NC(=O)[C@@H]3CNC(=O)N3)nn2-c2ccccc2)c1)C(F)(F)F` [Example 562] had a pIC50 of 7.89. Against the preceding molecule, the pIC50 is 0.37 log units lower.
Molecule `C[C@@H]1C(=O)NC[C@H]1C(=O)Nc1cc(-c2cccc(CO[C@H](C)C(F)(F)F)c2)n(-c2ccccc2)n1` [Example 564] gave a negative logarithm of the IC50 (pIC50) of 7.35.
For `C[C@@H](OCc1cccc(-c2cc(NC(=O)C3CCC(=O)NC3)nn2-c2ccccc2)c1)C(F)(F)F` (some centres unmarked) [Example 565], the pIC50 is 7.96.
Still for that read-out and setting: next, `CC(C)(OCc1cc(F)cc(-c2cc(NC(=O)[C@@H]3CNC(=O)C3)nn2-c2ccccc2)c1)C(F)(F)F` [Example 567]: 7.85.
On to `C[C@@H](OCc1cc(F)cc(-c2cc(NC(=O)[C@H]3CNC(=O)N3)nn2-c2ccc(Cl)cc2)c1)C(F)(F)F` [Example 570], for which the pIC50 is 8.06.
Same read-out and setting: to `C[C@@H](OCc1cc(F)cc(-c2cc(NC(=O)[C@H]3CNC(=O)O3)nn2-c2ccc(Cl)cc2)c1)C(F)(F)F` [Example 571] belongs 8.03.
Same read-out and setting: to `C[C@@H](OCc1cc(F)cc(-c2cc(NC(=O)C3CCC(=O)NC3)nn2-c2ccc(Cl)cc2)c1)C(F)(F)F` (some centres unmarked) [Example 572] belongs 8.29; to `O=C1C[C@H](C(=O)Nc2cc(-c3cc(F)cc(COC(C(F)(F)F)C(F)(F)F)c3)n(-c3ccc(F)cc3)n2)CN1` [Example 573], 7.89; to `CC(C)(OCc1cccc(-c2cc(NC(=O)[C@@H]3CNC(=O)C3)nn2-c2ccc(F)cc2)c1)C(F)(F)F` [Example 574], 7.77.
Turning to `CC(C)(OCc1cccc(-c2cc(NC(=O)[C@@H]3CNC(=O)C3)nn2-c2ccc(Cl)cc2)c1)C(F)(F)F` [Example 575], the pIC50 was 7.92.
The same measure, in the same setting: next, `O=C1C[C@H](C(=O)Nc2cc(-c3cccc(COC(C(F)(F)F)C(F)(F)F)c3)n(-c3ccc(Cl)cc3)n2)CN1` [Example 576]: 7.72; `C[C@@H](OCc1cc(Cl)cc(-c2cc(NC(=O)[C@@H]3CNC(=O)C3)nn2-c2ccccc2F)c1)C(F)(F)F` [Example 577]: 8.17.
`C[C@@H](OCc1cc(Cl)cc(-c2cc(NC(=O)[C@@H]3CNC(=O)C3)nn2-c2cccc(F)c2)c1)C(F)(F)F` [Example 578] gave a pIC50 of 8.07.
Same read-out and setting: next, `O=C1C[C@H](C(=O)Nc2cc(-c3cc(Cl)cc(COC(C(F)(F)F)C(F)(F)F)c3)n(-c3ccccc3)n2)CN1` [Example 579]: 7.64.
Consider `CC(C)(OCc1cc(F)cc(-c2cc(NC(=O)[C@@H]3CNC(=O)C3)nn2-c2ccc(Cl)cc2)c1)C(F)(F)F` [Example 580], for which the negative-log IC50 (pIC50) was 8.12.
On the same count and under the same terms, next, `CC(C)(OCc1cc(Cl)cc(-c2cc(NC(=O)[C@@H]3CNC(=O)C3)nn2-c2ccc(F)cc2)c1)C(F)(F)F` [Example 581]: 7.92.
The same measure, in the same setting: next, `C[C@@H](OCc1cc(Cl)cc(-c2cc(NC(=O)[C@@H]3CNC(=O)C3)nn2C2CCOCC2)c1)C(F)(F)F` [Example 584]: 7.08.

The same test, now with this note: CHO-K1, at 0.00265 uM.
In general, inhibition refers to the relative decrease from the control value, in per cent. The low end stands for a response near the control, the high end for a response far below the control. Take `C[C@H]1C(=O)NC[C@@H]1C(=O)Nc1cc(-c2cccc(CO[C@H](C)C(F)(F)F)c2)n(-c2ccccc2)n1` [Example 563]: 0.00265 µM produced 57% inhibition.

The test is the same for the next values; noted with them: CHO-K1, at 0.1 uM.
`O=C1C[C@H](C(=O)Nc2cc(-c3cccc(CO[C@H]4CCCOC4)c3)n(-c3ccccc3)n2)CN1` [Example 539] yielded an inhibition at 0.1 µM of 35%.
On the same count and under the same terms, to `CCS(=O)(=O)Cc1cccc(-c2cc(NC(=O)[C@@H]3CNC(=O)C3)nn2-c2ccccc2)c1` [Example 541] belongs 24%; to `O=C1C[C@H](C(=O)Nc2cc(-c3cccc(COC4COC4)c3)n(-c3ccccc3)n2)CN1` [Example 542], 18%; to `O=C1C[C@H](C(=O)Nc2cc(-c3cccc(COC4CCOCC4)c3)n(-c3ccccc3)n2)CN1` [Example 543], 15%.
On the same count and under the same terms, to `C[C@@H](OCc1cc(-c2cc(NC(=O)[C@@H]3CNC(=O)C3)nn2-c2ccccc2)cc(C(F)(F)F)c1)C(F)(F)F` [Example 544] belongs 21%; to `O=C1CC[C@H](C(=O)Nc2cc(-c3cccc(COCC(F)(F)F)c3)n(-c3ccccc3)n2)N1` [Example 548], 3%.
In the case of `O=C1CC[C@@H](C(=O)Nc2cc(-c3cccc(COCC(F)(F)F)c3)n(-c3ccccc3)n2)N1` [Example 549], the inhibition at 0.1 µM was 41%.
Still for that read-out and setting: next, `O=C1C[C@H](C(=O)Nc2cc(-c3cccc(S(=O)(=O)CC(F)(F)F)c3)n(-c3ccccc3)n2)CN1` [Example 550]: 29%; `O=C1C[C@H](C(=O)Nc2cc(-c3cccc(S(=O)(=O)CCC(F)(F)F)c3)n(-c3ccccc3)n2)CN1` [Example 551]: 42%.
Still for that read-out and setting: to `O=C1C[C@H](C(=O)Nc2cc(-c3cccc(CS(=O)(=O)CC(F)(F)F)c3)n(-c3ccccc3)n2)CN1` [Example 552] belongs 8%; to `CC(C)CS(=O)(=O)c1cccc(-c2cc(NC(=O)[C@@H]3CNC(=O)C3)nn2-c2ccccc2)c1` [Example 553], 31%.
For the molecule `C[C@@H](OCc1cc(F)cc(-c2cc(NC(=O)[C@H]3CCC(=O)N3)nn2-c2ccccc2)c1)C(F)(F)F` [Example 554], the inhibition at 0.1 µM came out at 32%.
The molecule `C[C@@H](OCc1cccc(-c2cc(NC(=O)[C@H]3CCC(=O)N3)nn2-c2ccccc2)c1)C(F)(F)F` [Example 556] returned an inhibition at 0.1 µM of 23%.
As for `C[C@@H](OCc1cc(-c2cc(NC(=O)[C@@H]3CNC(=O)C3)nn2-c2ccccc2)ccc1F)C(F)(F)F` [Example 557], the inhibition at 0.1 µM amounted to 48%.
`CC(C)(C)S(=O)(=O)c1cccc(-c2cc(NC(=O)[C@@H]3CNC(=O)C3)nn2-c2ccccc2)c1` [Example 569]: the inhibition at 0.1 µM amounted to 29%.
Same read-out and setting: next, `C[C@@H](OCc1cccc(-c2cc(NC(=O)[C@@H]3CNC(=O)C3)nn2C2CCOCC2)c1)C(F)(F)F` [Example 582]: 47%; `C[C@@H](OCc1cc(F)cc(-c2cc(NC(=O)[C@@H]3CNC(=O)C3)nn2C2CCOCC2)c1)C(F)(F)F` [Example 583]: 48%.

The test is the same for the next values; noted with them: CHO-K1, at 0.3 uM.
The molecule `CC(C)S(=O)(=O)Cc1cccc(-c2cc(NC(=O)[C@@H]3CNC(=O)C3)nn2-c2ccccc2)c1` [Example 566] came in with an inhibition at 0.3 µM of 22%.
Take `CC(C)S(=O)(=O)c1cccc(-c2cc(NC(=O)[C@@H]3CNC(=O)C3)nn2-c2ccccc2)c1` [Example 568]: the inhibition at 0.3 µM was 27%.

The record behind these values is US8846746B2, “Pyrazole compound and pharmaceutical use thereof” (Japan Tobacco Inc., priority 2011, dated 2014).
